IC50 data for 14 compounds are collected here from patent US20240409585A1, “MACROCYCLIC IMMUNOMODULATORS” (priority 2021, published 2024).

The assay deals with T1, PE-labeled human PD-L1-Ig binding to Jurkat cell line over-expressing human PD-1 (Jurkat-PD-1) (Homo sapiens, UniProt Q15116).
T1 construct: expressed in transfected cells; host or cells: Jurkat
Description: Jurkat-PD-1 Cell Binding High-Content Screening Assay (CBA): Method 1. The note with it: Jurkat-hPD-1 cells, PE-labeled PD-L1-Ig 20 nM final; read-out: Jurkat HPDL1 PD1 IC50 (uM) (Method 1).

Structures are written as SMILES. Bridge positions count the residues as written; N and C are the ends. Square brackets hold non-standard residues; d marks the D form. Peptide text beside a SMILES is read from it. * marks the point of attachment. ξ: configuration not given here. Phe(4-COOH) = N[C@@H](Cc1ccc(C(=O)O)cc1)C(=O)O; Bip = N[C@@H](Cc1ccc(-c2ccccc2)cc1)C(=O)O; Phe(3-Me) = Cc1cccc(C[C@H](N)C(=O)O)c1; 1Nal = N[C@@H](Cc1cccc2ccccc12)C(=O)O; Val(3-OH) = CC(C)(O)[C@H](N)C(=O)O; 4Pal = N[C@@H](Cc1ccncc1)C(=O)O; Cha = N[C@@H](CC1CCCCC1)C(=O)O; Cit = NC(=O)NCCC[C@H](N)C(=O)O; Ile(3ξ) = CCC(C)[C@H](N)C(=O)O; NMeOrn = CN[C@@H](CCCN)C(=O)O; Thr(3ξ) = CC(O)[C@H](N)C(=O)O; Ala(CN) = N#CC[C@H](N)C(=O)O; Pip = O=C(O)[C@@H]1CCCCN1; dDab = NCC[C@@H](N)C(=O)O; Carboxymethyl = O=C(O)C*; NMeA = CN[C@@H](C)C(=O)O; Orn = NCCC[C@H](N)C(=O)O; Dab = NCC[C@H](N)C(=O)O; Dap = NC[C@H](N)C(=O)O

T1 sequence (Q15116 25-288): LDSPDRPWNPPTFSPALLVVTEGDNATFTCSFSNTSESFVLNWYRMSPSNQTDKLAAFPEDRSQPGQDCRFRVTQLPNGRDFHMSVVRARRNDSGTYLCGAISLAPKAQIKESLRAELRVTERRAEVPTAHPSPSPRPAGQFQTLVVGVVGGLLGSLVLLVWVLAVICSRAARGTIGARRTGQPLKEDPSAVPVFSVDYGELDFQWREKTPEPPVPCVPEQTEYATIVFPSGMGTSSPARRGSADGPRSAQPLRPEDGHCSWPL

Usually IC50 stands for the point on the concentration scale where inhibition reaches its midpoint. Consider `CC(C)C[C@@H]1NC(=O)[C@H](CCCNC(=N)N)NC(=O)[C@@H](CC(C)C)NC(=O)[C@H](C)N(C)C(=O)[C@H](CCCNC(=N)N)NC(=O)[C@H](Cc2ccc(-c3ccccc3)cc2)NC(=O)[C@H](C(C)C)NC(=O)[C@H](Cc2c[nH]c3ccccc23)NC(=O)[C@H](CC(=O)O)NC(=O)[C@H](Cc2ccc(O)cc2)NC(=O)[C@H](Cc2cnc[nH]2)NC(=O)CSC[C@@H](C(=O)N[C@@H](C)C(N)=O)NC(=O)[C@H]([C@@H](C)O)NC(=O)[C@H](C(C)C)NC1=O` [Compound 1047] ({CH2CO}-HYDWV[Bip]R[NMeA][dL]RLVTCA-NH2; thioether N-14), for which the IC50 is 0.07 µM.

In the case of `CC(C)C[C@@H]1NC(=O)[C@H](Cc2c[nH]c3ccccc23)NC(=O)[C@H](CC(=O)O)NC(=O)[C@H](Cc2cccc3ccccc23)NC(=O)[C@H](Cc2ccccc2)NC(=O)CSC[C@@H](C(=O)N[C@@H](C)C(N)=O)NC(=O)[C@H](CO)NC(=O)[C@H](C(C)C)NC(=O)[C@H](CC(C)C)NC(=O)[C@H](CC(N)=O)NC(=O)[C@@H](C)NC(=O)[C@H](C)N(C)C(=O)[C@H](C(C)C)NC(=O)[C@H](Cc2ccc(-c3ccccc3)cc2)NC1=O` [Compound 1805] ({CH2CO}-F[1Nal]DWL[Bip]V[NMeA][dA]NLVSCA-NH2; thioether N-14), the IC50 is 0.23 µM.

With `Cc1cccc(C[C@@H]2NC(=O)[C@H](CC(=O)O)NC(=O)[C@H](Cc3ccc(OCC(=O)O)cc3)NC(=O)[C@H]([C@@H](C)O)NC(=O)CSC[C@@H](C(N)=O)NC(=O)[C@H](CCC(N)=O)NC(=O)[C@H](C(C)C)NC(=O)[C@H](CC3CCCCC3)NC(=O)[C@H](CC(N)=O)NC(=O)[C@@H](CC(C)C)NC(=O)[C@H](C)N(C)C(=O)[C@H](Cc3ccc(OCC(=O)O)cc3)NC(=O)[C@H](Cc3ccc(-c4ccccc4)cc3)NC(=O)[C@H](Cc3ccc(OCC(=O)O)cc3)NC2=O)c1` [Compound 1677] ({CH2CO}-TY(Carboxymethyl)D[Phe(3-Me)]Y(Carboxymethyl)[Bip]Y(Carboxymethyl)[NMeA][dL]N[Cha]VQC-NH2; thioether N-14), the IC50 was determined as 0.16 µM.

Turning to `Cc1cccc(C[C@@H]2NC(=O)[C@H](CC(=O)O)NC(=O)[C@H](Cc3ccc(OCC(=O)O)cc3)NC(=O)[C@H](CN)NC(=O)CSC[C@@H](C(N)=O)NC(=O)[C@H](CCC(=O)O)NC(=O)[C@H](C(C)C)NC(=O)[C@H](CC3CCCCC3)NC(=O)[C@H](CCN)NC(=O)[C@@H](CC(C)C)NC(=O)[C@@H]3CCCCN3C(=O)[C@H](Cc3ccc(OCC(=O)O)cc3)NC(=O)[C@H](Cc3ccc(-c4ccccc4)cc3)NC(=O)[C@H](Cc3ccc(OCC(=O)O)cc3)NC2=O)c1` [Compound 1894] ({CH2CO}-[Dap]Y(Carboxymethyl)D[Phe(3-Me)]Y(Carboxymethyl)[Bip]Y(Carboxymethyl)[Pip][dL][Dab][Cha]VEC-NH2; thioether N-14), the IC50 came out at 0.3 µM.

For the compound `CC(C)C[C@@H]1NC(=O)[C@H](CCN)NC(=O)[C@@H](CC(C)C)NC(=O)[C@H](C)N(C)C(=O)[C@H](Cc2cnc[nH]2)NC(=O)[C@H](Cc2ccc(-c3ccccc3)cc2)NC(=O)[C@H](C(C)C)NC(=O)[C@H](Cc2c[nH]c3ccccc23)NC(=O)[C@H](CC(=O)O)NC(=O)[C@H](Cc2ccc(OCC(=O)O)cc2)NC(=O)[C@H](CC(N)=O)NC(=O)CSC[C@@H](C(=O)N[C@@H](C)C(N)=O)NC(=O)[C@H]([C@@H](C)O)NC(=O)[C@H](C(C)C)NC1=O` [Compound 1388] ({CH2CO}-NY(Carboxymethyl)DWV[Bip]H[NMeA][dL][Dab]LVTCA-NH2; thioether N-14), the concentration for half-maximal inhibition (IC50) is 0.06 µM.

Take `CCNC(=O)[C@H](CCN)NC(=O)[C@@H]1CSCC(=O)N[C@@H](Cc2ccc(OCC(=O)O)cc2)C(=O)N[C@@H](Cc2ccc(OCC(=O)O)cc2)C(=O)N[C@@H](CC(=O)O)C(=O)N[C@@H](Cc2cccc(C)c2)C(=O)N[C@@H](C(C)C)C(=O)N[C@@H](Cc2ccc(-c3ccccc3)cc2)C(=O)N[C@@H](Cc2ccc(O)cc2)C(=O)N(C)[C@@H](C)C(=O)N[C@H](CC(C)C)C(=O)N[C@@H](CCN)C(=O)N[C@@H](CC2CCCCC2)C(=O)N[C@@H](C(C)C)C(=O)N[C@@H](CCCN)C(=O)N1` [Compound 1870] ({CH2CO}-Y(Carboxymethyl)Y(Carboxymethyl)D[Phe(3-Me)]V[Bip]Y[NMeA][dL][Dab][Cha]V[Orn]C[Dab]-NHEt; thioether N-14): the IC50 stood at 0.01 µM.

With `Cc1cccc(C[C@@H]2NC(=O)[C@H](CC(=O)O)NC(=O)[C@H](Cc3ccc(OCC(=O)O)cc3)NC(=O)[C@H](Cc3ccncc3)NC(=O)CSC[C@@H](C(=O)N[C@@H](CCN)C(N)=O)NC(=O)[C@H](CO)NC(=O)[C@H](C(C)(C)O)NC(=O)[C@H](CC3CCCCC3)NC(=O)[C@H](CCN)NC(=O)[C@@H](CC(C)C)NC(=O)[C@H](CCCN)N(C)C(=O)[C@H](Cc3ccc(OCC(=O)O)cc3)NC(=O)[C@H](Cc3ccc(-c4ccccc4)cc3)NC(=O)[C@H](Cc3ccc(OCC(=O)O)cc3)NC2=O)c1` [Compound 1836] ({CH2CO}-[4Pal]Y(Carboxymethyl)D[Phe(3-Me)]Y(Carboxymethyl)[Bip]Y(Carboxymethyl)[NMeOrn][dL][Dab][Cha][Val(3-OH)]SC[Dab]-NH2; thioether N-14), the IC50 is 0.67 µM.

For `CCC(C)[C@@H]1NC(=O)[C@H](Cc2ccc(-c3ccccc3)cc2)NC(=O)[C@H](CC(C)C)NC(=O)[C@H](Cc2c[nH]c3ccccc23)NC(=O)[C@H](CC(=O)O)NC(=O)[C@H](Cc2ccc(OCC(=O)O)cc2)NC(=O)[C@H](C(C)O)NC(=O)CSC[C@@H](C(=O)N[C@@H](CC(N)=O)C(=O)O)NC(=O)[C@H](CC#N)NC(=O)[C@H](C(C)C)NC(=O)[C@H](CC(C)C)NC(=O)[C@H](CCN)NC(=O)[C@@H](CC(C)C)NC(=O)[C@H](C)N(C)C1=O` (stereo partly drawn) [Compound 2226] ({CH2CO}-[Thr(3ξ)]Y(Carboxymethyl)DWL[Bip][Ile(3ξ)][NMeA][dL][Dab]LV[Ala(CN)]CN-OH; thioether N-14), the IC50 turned out to be 0.06 µM.

Turning to `Cc1cccc(C[C@@H]2NC(=O)[C@H](CC(=O)O)NC(=O)[C@H](Cc3ccc(OCC(=O)O)cc3)NC(=O)[C@H](CN)NC(=O)CSC[C@@H](C(=O)N[C@@H](C)C(N)=O)NC(=O)[C@H]([C@@H](C)O)NC(=O)[C@H](C(C)C)NC(=O)[C@H](CC(C)C)NC(=O)[C@H](CCN)NC(=O)[C@@H](CC(C)C)NC(=O)[C@H](C)N(C)C(=O)[C@H](CCCNC(N)=O)NC(=O)[C@H](Cc3ccc(-c4ccccc4)cc3)NC(=O)[C@H](C(C)C)NC2=O)c1` [Compound 1437] ({CH2CO}-[Dap]Y(Carboxymethyl)D[Phe(3-Me)]V[Bip][Cit][NMeA][dL][Dab]LVTCA-NH2; thioether N-14), the IC50 worked out at 0.02 µM.

Regarding `CC(C)C[C@@H]1NC(=O)[C@H](Cc2c[nH]c3ccccc23)NC(=O)[C@H](CC(=O)O)NC(=O)[C@H](Cc2ccc(O)cc2)NC(=O)[C@H](Cc2ccccc2)NC(=O)CSC[C@@H](C(=O)NCC(N)=O)NC(=O)[C@H](CO)NC(=O)[C@H](C(C)C)NC(=O)[C@H](CC(C)C)NC(=O)[C@H](CC(N)=O)NC(=O)[C@@H](C)NC(=O)[C@H](C)N(C)C(=O)[C@H](C(C)C)NC(=O)[C@H](Cc2ccc(-c3ccccc3)cc2)NC1=O` [Compound 1729] ({CH2CO}-FYDWL[Bip]V[NMeA][dA]NLVSCG-NH2; thioether N-14), the IC50 turned out to be 0.01 µM.

Consider `Cc1cccc(C[C@@H]2NC(=O)[C@H](CC(=O)O)NC(=O)[C@H](Cc3ccc(OCC(=O)O)cc3)NC(=O)[C@H](C(C)O)NC(=O)CSC[C@@H](C(=O)N[C@H](CCN)C(N)=O)NC(=O)[C@H](C(C)(C)O)NC(=O)[C@H](C(C)C)NC(=O)[C@H](CC3CCCCC3)NC(=O)[C@H](CCN)NC(=O)[C@@H](CC(C)C)NC(=O)[C@H](C)N(C)C(=O)[C@H](Cc3ccc(OCC(=O)O)cc3)NC(=O)[C@H](Cc3ccc(-c4ccccc4)cc3)NC(=O)[C@H](Cc3ccc(C(=O)O)cc3)NC2=O)c1` (stereo partly drawn) [Compound 2156] ({CH2CO}-[Thr(3ξ)]Y(Carboxymethyl)D[Phe(3-Me)][Phe(4-COOH)][Bip]Y(Carboxymethyl)[NMeA][dL][Dab][Cha]V[Val(3-OH)]C[dDab]-NH2; thioether N-14), for which the IC50 turned out to be 0.12 µM.

For the compound `CC(C)C[C@@H]1NC(=O)[C@H](Cc2c[nH]c3ccccc23)NC(=O)[C@H](CC(=O)O)NC(=O)[C@H](Cc2ccc(C(=O)O)cc2)NC(=O)[C@H](Cc2ccc(OCC(=O)O)cc2)NC(=O)CSC[C@@H](C(=O)N[C@H](C)C(N)=O)NC(=O)[C@H](CO)NC(=O)[C@H](C(C)(C)O)NC(=O)[C@H](CC2CCCCC2)NC(=O)[C@H](CCN)NC(=O)[C@@H](CC(C)C)NC(=O)[C@H](C)N(C)C(=O)[C@H](C(C)(C)O)NC(=O)[C@H](Cc2ccc(-c3ccccc3)cc2)NC1=O` [Compound 1714] ({CH2CO}-Y(Carboxymethyl)[Phe(4-COOH)]DWL[Bip][Val(3-OH)][NMeA][dL][Dab][Cha][Val(3-OH)]SC[dA]-NH2; thioether N-14), the IC50 stood at 0.02 µM.

Turning to `Cc1cccc(C[C@@H]2NC(=O)[C@H](CC(=O)O)NC(=O)[C@H](Cc3ccc(OCC(=O)O)cc3)NC(=O)[C@H](Cc3ccncc3)NC(=O)CSC[C@@H](C(=O)N[C@H](CC(N)=O)C(N)=O)NC(=O)[C@H](CO)NC(=O)[C@H](C(C)(C)O)NC(=O)[C@H](CC3CCCCC3)NC(=O)[C@H](CCN)NC(=O)[C@@H](CC(C)C)NC(=O)[C@H](C)N(C)C(=O)[C@H](Cc3ccc(O)cc3)NC(=O)[C@H](Cc3ccc(-c4ccccc4)cc3)NC(=O)[C@H](Cc3ccc(O)cc3)NC2=O)c1` [Compound 2140] ({CH2CO}-[4Pal]Y(Carboxymethyl)D[Phe(3-Me)]Y[Bip]Y[NMeA][dL][Dab][Cha][Val(3-OH)]SC[dN]-NH2; thioether N-14), the IC50 worked out at 0.1 µM.

For the compound `CCC(C)[C@@H]1NC(=O)[C@H](Cc2ccc(-c3ccccc3)cc2)NC(=O)[C@H](CC(C)C)NC(=O)[C@H](Cc2c[nH]c3ccccc23)NC(=O)[C@H](CC(=O)O)NC(=O)[C@H](Cc2ccc(C(=O)O)cc2)NC(=O)[C@H](Cc2ccc(OCC(=O)O)cc2)NC(=O)CSC[C@@H](C(=O)N[C@@H](CC(N)=O)C(N)=O)NC(=O)[C@H]([C@@H](C)O)NC(=O)[C@H](C(C)C)NC(=O)[C@H](CC2CCCCC2)NC(=O)[C@H](CCN)NC(=O)[C@@H](CC(C)C)NC(=O)[C@H](C)N(C)C1=O` (stereo partly drawn) [Compound 1919] ({CH2CO}-Y(Carboxymethyl)[Phe(4-COOH)]DWL[Bip][Ile(3ξ)][NMeA][dL][Dab][Cha]VTCN-NH2; thioether N-14), the IC50 was 0.03 µM.
